Assay results taken from PMC6705415 (Nature structural & molecular biology, 2019).
Where a chain is given by its changes, count along the chain named.

Key:
[1] = biological target: T1, hENT1 Phe307Tyr (hENT1cryst background) (Homo sapiens, UniProt Q99808, DEL243-274/F307Y/L168F/N288K/P175A); assay: Cold dilazep displacement of 3H-NBMPR; format: binding; conditions: Phe307Tyr relative to hENT1cryst; displacement of 100 nM 3H-NBMPR
T1 sequence (Q99808 with tags, fused parts or gaps L168F/P175A/DEL243-274/N288K/F307Y): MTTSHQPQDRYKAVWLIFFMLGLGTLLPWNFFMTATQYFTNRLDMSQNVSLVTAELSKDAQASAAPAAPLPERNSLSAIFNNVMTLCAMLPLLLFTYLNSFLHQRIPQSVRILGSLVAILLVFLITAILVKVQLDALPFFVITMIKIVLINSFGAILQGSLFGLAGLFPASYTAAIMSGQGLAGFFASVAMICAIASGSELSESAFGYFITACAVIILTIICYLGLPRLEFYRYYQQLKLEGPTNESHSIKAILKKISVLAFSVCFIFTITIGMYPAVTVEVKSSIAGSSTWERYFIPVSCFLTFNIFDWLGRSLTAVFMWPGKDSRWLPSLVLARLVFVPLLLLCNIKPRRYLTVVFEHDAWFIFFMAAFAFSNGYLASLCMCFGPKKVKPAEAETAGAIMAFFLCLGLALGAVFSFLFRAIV

[2] = biological target: T2, hENT1 Met33Ile (hENT1cryst background) (Homo sapiens, UniProt Q99808, DEL243-274/L168F/M33I/N288K/P175A); assay: Cold dilazep displacement of 3H-NBMPR; format: binding; conditions: Met33Ile relative to hENT1cryst; displacement of 100 nM 3H-NBMPR
T2 sequence (Q99808 with tags, fused parts or gaps M33I/L168F/P175A/DEL243-274/N288K): T1 sequence (Q99808 with tags, fused parts or gaps L168F/P175A/DEL243-274/N288K/F307Y) with M33I, Y275F

[3] = biological target: T3, hENT1 Phe307Ala (hENT1cryst background) (Homo sapiens, UniProt Q99808, DEL243-274/F307A/L168F/N288K/P175A); assay: Cold dilazep displacement of 3H-NBMPR; format: binding; conditions: Phe307Ala relative to hENT1cryst; displacement of 100 nM 3H-NBMPR
T3 sequence (Q99808 with tags, fused parts or gaps L168F/P175A/DEL243-274/N288K/F307A): T1 sequence (Q99808 with tags, fused parts or gaps L168F/P175A/DEL243-274/N288K/F307Y) with Y275A

[4] = system: hENT1 Gly154 mutated to serine; conditions: Gly154 to serine mutation in hENT1 versus wild type; cited from earlier work

decrease in apparent Kd for dilazep [1]	increase in apparent Kd for dilazep [2]	increase in apparent Kd for dilazep [3]	Compound	decrease in NBMPR inhibitory potency [4]
~ 4 fold	~ 3 fold	~ 90 fold	COc1cc(C(=O)OCCCN2CCCN(CCCOC(=O)c3cc(OC)c(OC)c(OC)c3)CC2)cc(OC)c1OC [dilazep]	
			O=[N+]([O-])c1ccc(CSc2ncnc3c2ncn3[C@@H]2O[C@H](CO)[C@@H](O)[C@H]2O)cc1 [NBMPR, S-(4-Nitrobenzyl)-6-thioinosine]	~ 2,500 fold
